COc1cc(/C=C/C(=O)O)cc(OC)c1O
solubility (mole fraction)
Conditions	in DMSO	in ethanol	in ethyl acetate	in ethylene glycol	in isopropanol	in n-butanol	in propylene glycol	in sec-butanol	in transcutol	in water
298.15 K	0.148	0.012	0.00532	0.0059	0.00213	0.00355	0.00452	0.00409	0.0298	6.22e-05
303.15 K	0.15	0.013	0.00627	0.00663	0.00222	0.00429	0.0053	0.00486	0.0324	8.11e-05
308.15 K	0.153	0.0141	0.00764	0.00748	0.00234	0.00529	0.00607	0.00559	0.0353	0.000113
313.15 K	0.156	0.0152	0.00935	0.00843	0.00245	0.00631	0.00708	0.00663	0.0383	0.000146
318.15 K	0.159	0.0164	0.0109	0.00934	0.00257	0.00729	0.00811	0.00761	0.0412	0.000188

Conditions	solubility (mole fraction)
in PEG-400, 298.15 K	0.0558
in PEG-400, 303.15 K	0.0616
in PEG-400, 308.15 K	0.0681
in PEG-400, 313.15 K	0.0748
in PEG-400, 318.15 K	0.0834
